Reference: PMC11597625, “Mutational Analysis of Substrate Recognition in Trypsin-like Protease Cocoonase: Protein Memory Induced by Alterations in Substrate-Binding Site” (Molecules, 2024)

Molecular target: T1, CCN′ ([K63G,K131G,K133A]-CCN, degradation-suppressed cocoonase) (Bombyx mori, UniProt A7TVD3, K85G/K153G/K155A)
T1 construct: mature enzyme, propeptide removed (precursors carried K8D or K8D/E10D/E11D in the propeptide)
Test: BAEE hydrolysis assay
Type: biochemical
Details: assay conditions not described

T1 sequence (A7TVD3 entry or part of it K85G/K153G/K155A): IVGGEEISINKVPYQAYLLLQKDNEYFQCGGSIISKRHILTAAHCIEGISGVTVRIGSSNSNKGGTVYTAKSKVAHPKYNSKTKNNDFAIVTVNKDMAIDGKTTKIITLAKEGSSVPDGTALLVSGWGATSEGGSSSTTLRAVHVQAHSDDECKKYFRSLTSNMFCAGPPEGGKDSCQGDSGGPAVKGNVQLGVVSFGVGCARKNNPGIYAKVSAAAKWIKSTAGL

Km: 372 µM
Structure (SMILES): CCOC(=O)[C@H](CCCNC(=N)N)NC(=O)c1ccccc1 [BAEE]
